From patent US9139529B2, “Substituted quinoxalines as sodium channel modulators” (VERTEX PHARMACEUTICALS INCORPORATED, priority 2013, dated 2015)

The compounds below were run against human Nav1.8 (Homo sapiens (Human), UniProt Q9Y5Y9) (assay: E-VIPR optical membrane potential assay with electrical stimulation). Conditions: HEK cells expressing human Nav1.8.
Format: cell-based
Description: Assays for Detecting and Measuring NaV Inhibition Properties of Compounds E-VIPR Optical Membrane Potential Assay Method with Electrical Stimulation
Sodium channels are voltage-dependent proteins that can be activated by inducing membrane voltage changes by applying electric fields. The electrical stimulation instrument and methods of use are described in Ion Channel Assay Methods PCT/US01/21652, herein incorporated by reference and are referred to as E-VIPR. The instrument comprises a microtiter plate handler, an optical system for exciting the coumarin dye while simultaneously recording the coumarin and oxonol emissions, a waveform generator, a current- or voltage-controlled amplifier, and a device for inserting electrodes in well. Under integrated computer control, this instrument passes user-programmed electrical stimulus protocols to cells within the wells of the microtiter plate.
24 hours before the assay on E-VIPR, HEK cells expressing human Nav1.8 were seeded in 384-well poly-lysine coated plates at 15,000-20,000 cells per well. HEK cells were grown in media (exact composition is specific to each cell type and NaV subtype) supplemented with 10% FBS (Fetal Bovine Serum, qualified; GibcoBRL #16140-071) and 1% Pen-Strep (Penicillin-Streptomycin; GibcoBRL #15140-122). Cells were grown in vented cap flasks, in 90% humidity and 5% CO2.
1) Pre-spotted compounds (in neat DMSO) into compound plates. Vehicle control (neat DMSO), the positive control (20 mM DMSO stock tetracaine, 125 μM final in assay) and test compounds were added to each well at 160× desired final concentration in neat DMSO. Final compound plate volume was 80 μL (80-fold intermediate dilution from 1 μL DMSO spot; 160-fold final dilution after transfer to cell plate). Final DMSO concentration for all wells in assay was 0.625%.
2) Prepared Hexyl Dye Solution.
3) Prepared cell plates. On the day of the assay, medium was aspirated and cells were washed three times with 100 μL of Bath1 Solution, maintaining 25 μL residual volume in each well.
4) Dispensed 25 μL per well of Hexyl Dye Solution into cell plates. Incubated for 20-35 minutes at room temp or ambient conditions.
5) Dispensed 80 μL per well of Bath1 into compound plates. Acid Yellow-17 (1 mM) was added and Potassium Chloride was altered from 4.5 to 20 mM depending on the NaV subtype and assay sensitivity.
6) Washed cell plates three times with 100 μL per well of Bath1, leaving 25 μL of residual volume. Then transferred 25 uL per well from Compound Plates to Cell Plates. Incubated for 20-35 minutes at room temp/ambient condition.
7) Read Plate on E-VIPR. Used the current-controlled amplifier to deliver stimulation wave pulses for 10 seconds and a scan rate of 200 Hz. A pre-stimulus recording was performed for 0.5 seconds to obtain the un-stimulated intensities baseline. The stimulatory waveform was followed by 0.5 seconds of post-stimulation recording to examine the relaxation to the resting state.
Data was analyzed and reported as normalized ratios of emission intensities measured in the 460 nm and 580 nm channels. The response as a function of time was reported as the ratios obtained using the following formula: […]
The data was further reduced by calculating the initial (Ri) and final (Rf) ratios. These were the average ratio values during part or all of the pre-stimulation period, and during sample points during the stimulation period. The response to the stimulus R=Rf/Ri was then calculated and reported as a function of time.
Control responses were obtained by performing assays in the presence of a compound with the desired properties (positive control), such as tetracaine, and in the absence of pharmacological agents (negative control). Responses to the negative (N) and positive (P) controls were calculated as above. The compound antagonist activity A is defined as:
[formula] where R is the ratio response of the test compound

Chain of human Nav1.8 (Q9Y5Y9 whole entry): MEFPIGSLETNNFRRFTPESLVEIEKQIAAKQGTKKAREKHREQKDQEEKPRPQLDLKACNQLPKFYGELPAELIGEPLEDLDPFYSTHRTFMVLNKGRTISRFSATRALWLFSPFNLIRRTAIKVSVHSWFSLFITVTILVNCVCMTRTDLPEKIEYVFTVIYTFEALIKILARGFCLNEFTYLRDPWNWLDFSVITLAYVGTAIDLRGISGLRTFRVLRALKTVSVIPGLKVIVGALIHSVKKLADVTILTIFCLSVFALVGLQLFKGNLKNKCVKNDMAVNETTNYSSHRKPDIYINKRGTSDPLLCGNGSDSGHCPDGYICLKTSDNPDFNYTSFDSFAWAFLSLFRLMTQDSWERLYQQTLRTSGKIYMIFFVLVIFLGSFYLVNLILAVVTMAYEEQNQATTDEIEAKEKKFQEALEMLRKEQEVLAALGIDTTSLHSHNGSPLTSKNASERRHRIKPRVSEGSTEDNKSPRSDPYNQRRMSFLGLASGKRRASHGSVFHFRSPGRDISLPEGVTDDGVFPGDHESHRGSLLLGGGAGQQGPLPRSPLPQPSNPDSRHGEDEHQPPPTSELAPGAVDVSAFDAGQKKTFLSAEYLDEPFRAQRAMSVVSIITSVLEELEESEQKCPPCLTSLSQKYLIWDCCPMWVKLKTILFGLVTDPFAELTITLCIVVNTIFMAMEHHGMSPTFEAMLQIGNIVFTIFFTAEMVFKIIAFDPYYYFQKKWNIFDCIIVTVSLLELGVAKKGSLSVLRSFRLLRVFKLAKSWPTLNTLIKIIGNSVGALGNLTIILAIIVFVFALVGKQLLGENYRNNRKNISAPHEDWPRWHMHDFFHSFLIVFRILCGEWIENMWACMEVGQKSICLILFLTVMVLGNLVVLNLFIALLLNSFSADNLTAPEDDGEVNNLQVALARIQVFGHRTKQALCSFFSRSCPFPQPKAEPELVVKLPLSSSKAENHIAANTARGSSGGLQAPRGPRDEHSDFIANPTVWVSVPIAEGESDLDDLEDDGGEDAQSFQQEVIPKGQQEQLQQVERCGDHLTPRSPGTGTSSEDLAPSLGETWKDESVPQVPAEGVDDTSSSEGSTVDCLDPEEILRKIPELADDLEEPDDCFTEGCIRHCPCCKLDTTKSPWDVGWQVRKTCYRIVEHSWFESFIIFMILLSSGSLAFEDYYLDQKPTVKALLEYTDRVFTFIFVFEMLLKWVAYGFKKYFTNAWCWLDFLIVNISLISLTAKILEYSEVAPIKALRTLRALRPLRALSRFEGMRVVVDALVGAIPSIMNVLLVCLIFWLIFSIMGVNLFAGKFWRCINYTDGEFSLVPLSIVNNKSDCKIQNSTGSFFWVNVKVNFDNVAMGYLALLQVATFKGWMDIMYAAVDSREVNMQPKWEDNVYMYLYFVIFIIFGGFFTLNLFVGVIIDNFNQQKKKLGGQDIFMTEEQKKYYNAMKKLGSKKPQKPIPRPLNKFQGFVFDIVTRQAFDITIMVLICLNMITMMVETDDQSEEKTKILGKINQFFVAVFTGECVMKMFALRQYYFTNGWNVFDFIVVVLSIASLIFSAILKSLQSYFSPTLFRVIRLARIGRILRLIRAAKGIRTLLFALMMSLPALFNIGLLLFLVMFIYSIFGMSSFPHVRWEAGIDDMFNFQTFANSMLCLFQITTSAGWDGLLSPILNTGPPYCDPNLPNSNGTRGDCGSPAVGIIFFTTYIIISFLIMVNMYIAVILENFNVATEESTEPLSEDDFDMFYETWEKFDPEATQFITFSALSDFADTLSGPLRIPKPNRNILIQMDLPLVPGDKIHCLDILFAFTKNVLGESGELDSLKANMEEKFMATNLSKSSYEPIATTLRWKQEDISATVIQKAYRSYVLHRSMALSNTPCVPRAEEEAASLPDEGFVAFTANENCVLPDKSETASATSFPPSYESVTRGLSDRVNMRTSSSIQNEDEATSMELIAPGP

IC50 | SMILES
250 nM | O=C(O)c1ccc(NC(=O)c2nc3ccccc3nc2Oc2ccc(F)cc2)cn1 [Compound 18, 5-(3-(4-fluorophenoxy)quinoxaline-2-carboxamido)picolinic acid]
86 nM | Cc1cc(F)ccc1Oc1nc2ccccc2nc1C(=O)Nc1ccc(C(=O)O)nc1 [Compound 19, 5-(3-(4-fluoro-2-methylphenoxy)quinoxaline-2-carboxamido)picolinic acid]
1080 nM | O=C(O)c1ccc(NC(=O)c2nc3ccccc3nc2Oc2ccccc2)cn1 [Compound 20, 5-(3-phenoxyquinoxaline-2-carboxamido)picolinic acid]
235 nM | COc1ccc(Oc2nc3ccccc3nc2C(=O)Nc2ccc(C(=O)O)nc2)c(F)c1 [Compound 21, 5-(3-(2-fluoro-4-methoxyphenoxy)quinoxaline-2-carboxamido)picolinic acid]
180 nM | O=C(O)c1ccc(NC(=O)c2nc3ccccc3nc2Oc2ccc(OCC(F)(F)F)cc2)cn1 [Compound 22, 5-(3-(4-(2,2,2-trifluoroethoxy)phenoxy)quinoxaline-2-carboxamido)picolinic acid]
19 nM | COc1cc(Cl)ccc1Oc1nc2ccccc2nc1C(=O)Nc1ccc(C(=O)O)nc1 [Compound 23, 5-(3-(4-chloro-2-methoxyphenoxy)quinoxaline-2-carboxamido)picolinic acid]
340 nM | O=C(O)c1ccc(NC(=O)c2nc3ccccc3nc2Oc2ccccc2OC(F)F)cn1 [Compound 24, 5-(3-(2-(difluoromethoxy)phenoxy)quinoxaline-2-carboxamido)picolinic acid]
56 nM | Cc1cc(Cl)ccc1Oc1nc2ccccc2nc1C(=O)Nc1ccc(C(=O)O)nc1 [Compound 25, 5-(3-(4-chloro-2-methylphenoxy)quinoxaline-2-carboxamido)picolinic acid]
46 nM | COc1ccc(Oc2nc3ccccc3nc2C(=O)Nc2ccc(C(=O)O)nc2)c(OC)c1 [Compound 26, 5-(3-(2,4-dimethoxyphenoxy)quinoxaline-2-carboxamido)picolinic acid]
185 nM | COc1ccc(Oc2nc3ccccc3nc2C(=O)Nc2ccc(C(=O)O)nc2)cc1F [Compound 27, 5-(3-(3-fluoro-4-methoxyphenoxy)quinoxaline-2-carboxamido)picolinic acid]
51 nM | O=C(O)c1ccc(NC(=O)c2nc3ccccc3nc2Oc2ccc(F)cc2Cl)cn1 [Compound 28, 5-(3-(2-chloro-4-fluorophenoxy)quinoxaline-2-carboxamido)picolinic acid]
185 nM | O=C(O)c1ccc(NC(=O)c2nc3ccccc3nc2Oc2ccc(F)cc2F)cn1 [Compound 29, 5-(3-(2,4-difluorophenoxy)quinoxaline-2-carboxamido)picolinic acid]
69 nM | COc1ccc(Oc2nc3ccccc3nc2C(=O)Nc2ccc(C(=O)O)nc2)c(Cl)c1 [Compound 30, 5-(3-(2-chloro-4-methoxyphenoxy)quinoxaline-2-carboxamido)picolinic acid]
15 nM | O=C(O)c1ccc(NC(=O)c2nc3ccccc3nc2Oc2ccc(OC(F)(F)F)cc2)cn1 [Compound 31, 5-(3-(4-(trifluoromethoxy)phenoxy)quinoxaline-2-carboxamido)picolinic acid]
83 nM | COc1cc(F)ccc1Oc1nc2ccccc2nc1C(=O)Nc1ccc(C(=O)O)nc1 [Compound 32, 5-(3-(4-fluoro-2-methoxyphenoxy)quinoxaline-2-carboxamido)picolinic acid]
7 nM | O=C(O)c1cc(NC(=O)c2nc3ccccc3nc2Oc2ccc(OC(F)(F)F)cc2)ccn1 [Compound 33, 4-(3-(4-(trifluoromethoxy)phenoxy)quinoxaline-2-carboxamido)picolinic acid]
16 nM | COc1cc(F)ccc1Oc1nc2ccccc2nc1C(=O)Nc1ccnc(C(=O)O)c1 [Compound 34, 4-(3-(4-fluoro-2-methoxyphenoxy)quinoxaline-2-carboxamido)picolinic acid]

IC50 | SMILES
74 nM | O=C(Nc1cc[nH]c(=O)c1)c1nc2ccccc2nc1Oc1ccc(F)cc1 [Compound 35, 3-(4-fluorophenoxy)-N-(2-oxo-1,2-dihydropyridin-4-yl)quinoxaline-2-carboxamide]
460 nM | COc1cc(F)ccc1Oc1nc2ccccc2nc1C(=O)Nc1cccc(C(=O)O)c1 [Compound 36, 3-(3-(4-fluoro-2-methoxyphenoxy)quinoxaline-2-carboxamido)benzoic acid]
450 nM | COc1cc(F)ccc1Oc1nc2ccccc2nc1C(=O)Nc1nc(C(=O)O)cs1 [Compound 37, 2-(3-(4-Fluoro-2-methoxyphenoxy)quinoxaline-2-carboxamido)thiazole-4-carboxylic acid]
1220 nM | COc1cc(F)ccc1Oc1nc2ccccc2nc1C(=O)Nc1nc[nH]n1 [Compound 38, 3-(4-fluoro-2-methoxyphenoxy)-N-(1H-1,2,4-triazol-3-yl)quinoxaline-2-carboxamide]
2600 nM | COc1cc(F)ccc1Oc1nc2ccccc2nc1C(=O)Nc1nc(C(=O)O)co1 [Compound 39, 2-(3-(4-fluoro-2-methoxyphenoxy)quinoxaline-2-carboxamido)oxazole-4-carboxylic acid]
1700 nM | COc1cc(F)ccc1Oc1nc2ccccc2nc1C(=O)Nc1cc[nH]n1 [Compound 40, 3-(4-fluoro-2-methoxyphenoxy)-N-(1H-pyrazol-3-yl)quinoxaline-2-carboxamide]
96 nM | COc1cc(F)ccc1Oc1nc2ccccc2nc1C(=O)Nc1ccc2[nH]nnc2c1 [Compound 42, N-(1H-benzo[d][1,2,3]triazol-5-yl)-3-(4-fluoro-2-methoxyphenoxy)quinoxaline-2-carboxamide]
220 nM | COc1cc(F)ccc1Oc1nc2ccccc2nc1C(=O)Nc1cn[nH]c1 [Compound 43, 3-(4-fluoro-2-methoxyphenoxy)-N-(1H-pyrazol-4-yl)quinoxaline-2-carboxamide]
425 nM | COc1cc(F)ccc1Oc1nc2ccccc2nc1C(=O)Nc1ccc2[nH]c(CO)nc2c1 [Compound 44, 3-(4-fluoro-2-methoxyphenoxy)-N-(2-(hydroxymethyl)-1H-benzo[d]imidazol-5-yl)quinoxaline-2-carboxamide]
1650 nM | COc1cc(F)ccc1Oc1nc2ccccc2nc1C(=O)Nc1cccc(-c2nnn[nH]2)c1 [Compound 45, N-(3-(1H-tetrazol-5-yl)phenyl)-3-(4-fluoro-2-methoxyphenoxy)quinoxaline-2-carboxamide]
1 nM | COc1cc(F)ccc1Oc1nc2ccccc2nc1C(=O)Nc1cccc(S(C)(=O)=O)c1 [Compound 46, 3-(4-fluoro-2-methoxyphenoxy)-N-(3-(methylsulfonyl)phenyl)quinoxaline-2-carboxamide]
130 nM | COc1cc(F)ccc1Oc1nc2ccccc2nc1C(=O)Nc1ccc2cn[nH]c2c1 [Compound 47, 3-(4-fluoro-2-methoxyphenoxy)-N-(1H-indazol-6-yl)quinoxaline-2-carboxamide]
86 nM | COc1cc(F)ccc1Oc1nc2ccccc2nc1C(=O)Nc1ccc2[nH]ncc2c1 [Compound 48, 3-(4-fluoro-2-methoxyphenoxy)-N-(1H-indazol-5-yl)quinoxaline-2-carboxamide]
585 nM | COc1cc(F)ccc1Oc1nc2ccccc2nc1C(=O)Nc1ccc2nc[nH]c2c1 [Compound 49, N-(1H-benzo[d]imidazol-6-yl)-3-(4-fluoro-2-methoxyphenoxy)quinoxaline-2-carboxamide]
1250 nM | COc1cc(F)ccc1Oc1nc2ccccc2nc1C(=O)Nc1cc(C#N)ccn1 [Compound 50, N-(4-cyanopyridin-2-yl)-3-(4-fluoro-2-methoxyphenoxy)quinoxaline-2-carboxamide]
37 nM | COc1cc(F)ccc1Oc1nc2ccccc2nc1C(=O)Nc1ccc(C#N)nc1 [Compound 51, N-(6-cyanopyridin-3-yl)-3-(4-fluoro-2-methoxyphenoxy)quinoxaline-2-carboxamide]
